# Test results taken from US4940730A, “Angiogenesis enhancer” (Takeda Chemical Industries, Ltd., priority 1987, dated 1990).
# Structures can show the parent of a compound that is named as a salt.
# Test system: hen's chlorioallantoic membrane
# Assay: CAM (Chorio Allantoic Membrane) assay
# Assay type: in vivo
# Conditions: for ED50: amount of drug which gave the numerical value 5 (positive rate) in CAM assay; for Positive rate of CAM assay: average neovascularization score (++=10, +=7, °=3, -=0), 3 days on membrane
# Method: CAM (Chorio Allantoic Membrane) assay was conducted on various compounds of the present invention. The technique of the CAM assay was that modified somewhat on Auerbach's method [Developmental Biology, 41, 391 (1974)]. More specifically, hen's fertile eggs were incubated for three days at 37° C. (Napco carbon dioxide incubator-6300 was employed, CO2 :0% H2 O saturated). Polypropylene-made discs (6 mm. diameter) were spotted with a chloroform:ethanol (1:4 by volume) solution of each compound so that the concentration may be 0, 0.25, 0.64, 1.6, 4, 10 and 25 ug, respectively. The test materials were air-dried in a clean bench, which were then placed quietly on hen's chlorioallantoic membrane, followed by incubation at 37° C. for further three days. Then, the vascularization state was observed. In the tables, the positive rates were calculated on the following basis. Namely, degrees of neovascularization were determined as ++ for very strong, + for strong, ° for weak and - for negative, and they were numerized as 10, 7, 3 and 0, respectively. The average numerical value in each of the concentrations of the respective samples was made as positive rate. Further, the amount of the drug which gave the numerical value 5 in each sample was shown as ED50 value (ug/disc).
# [1] = amount of sample 0.64 μg per disc
# [2] = amount of sample 1.6 μg per disc
# [3] = amount of sample 10 μg per disc
# [4] = amount of sample 25 μg per disc
Structure (SMILES),ED50 [ug/disc],Positive rate of CAM assay [1],Positive rate of CAM assay [2],Positive rate of CAM assay (amount of sample 4 μg per disc),Positive rate of CAM assay [3],Positive rate of CAM assay [4]
"CCCCCCCCC1OC1CCCCCCCCCCCC(N)=O (centres unmarked) [13,14-Epoxyerucamide]",2.22,1.5,3.3,8.5,10,10
CCCCCCCCCCCCCC(=O)O [Myristic acid],25.0,0,0,0.8,4,5
CCCCCCCC/C=C/CCCCCCCCCCCC(N)=O [Brassidamide],1.89,0,2.0,7.4,9.3,10
CCCCCCCC/C=C\CCCCCCCCCCCCCC(=O)O [Nervonic acid],2.75,1.8,2.5,7.8,9.3,8.5
CCCCCCCCCCCCCCCCCCCC(=O)O [Arachidic acid],4.00,0,4.6,4.6,7.6,8.8
CCCCCCCC/C=C\CCCCCCCCCCCCO [13-Docosen-1-ol],2.15,1.4,4.8,6.8,9.4,10
CCCCCCCC/C=C\CCCCCCCCCCCC(=O)N1C(C(=O)O)CSC1c1ccncc1 (centres unmarked) [2-Py-Thia-CO2 H],2.67,2.8,2.6,6.8,10,10
CCCCCCCCCCCCCCCCCCCCCCCCCC(=O)O [Cerotic acid],2.75,1.8,2.5,7.8,9.3,8.5
CC/C=C\C/C=C\C/C=C\C/C=C\C/C=C\C/C=C\CCC(=O)O [Docosahexaenoic acid],–,0,0,0,0.6,4.8
"CCCCCCCC/C=C\CCCCCCCCCCCC(=O)N(CCO)CCO [N, N-di-diethanol]",2.42,1.0,2.3,8.0,10,10
CCCCCCCC/C=C\CCCCCCCC(N)=O [Oleamide],16.7,0,0.6,0,7.8,6.8
CCCCCCCC/C=C/CCCCCCCC(=O)O [Elaidic acid],–,0,0,3,4,4
"CCCCCCCCC1OC1CCCCCCCCCCCCO (centres unmarked) [13, 14-Eopxy-docosan-1-ol]",5.18,0,0,3.3,9.3,10
CCCCCCCCCCCCCCCCCC(=O)O [Stearic acid],7.14,0,0,1.8,6.8,9.4
"CCCCCCCC/C=C\CCCCCCCCCCCC(=O)NC [N-methyl, N-methyl erucamide]",2.90,0.8,2.3,7.8,10,10
CCCCCCCCCCCCCCCCCCCCCC[N+](C)(C)C [1-Trimethyammonio docosane bromide],4.00,0,4.5,5.0,8.0,–
"CCCC(N)=O [Butyramide, reference compound]",–,0,0,0,0,0
C=CCCCCCCCCCCCCCCCCCCCC [1-Docosene],5.46,0,0,2.5,10,9.3
CCCCCCCC/C=C\CCCCCCCCCCCCN [1-Amino-13-docosene.HCl],0.94,3.4,7.0,8.8,10,> 10
CCCCCCCC/C=C\CCCCCCCCCCCC(=O)NCC(=O)O [carboxymethyl amine],6.58,0,0,2.6,7.0,10
"CCCCCCCC/C=C\CCCCCCCCCCCC(=O)N1CCC[C@H]1C(=O)OC [proline methylester, N-erucoyl-proline methyl ester]",4.00,0.8,2.3,5.0,7.8,10
CCCCCCCCCCCCCCCCCCCC(N)=O [Arachidamide],11.5,0,2.8,3.4,4.6,7.4
CCCCC/C=C\C/C=C\CCCCCCCC(=O)O [Linoleic acid],7.69,0,1.8,2.5,6,10
CCCCCCCCCCCCCCCC(=O)O [Palmitic acid],14.5,0,0,0,3.2,7.6
"CCCCCCCC/C=C\CCCCCCCCCCCC(=O)N(C)C [N,N-dimethyl]",5.41,0,1.5,3.3,8.5,9.3
